# Patent US20160361255A1, “Peptide Nanotubes for Slow Release of Drugs at Peripheral Nerve Injury” (The University of Toledo, priority 2015, published 2016)
# Key:
# [1] = test system: differentiated dopaminergic PC12 cells; test: LIVE/DEAD viability of differentiated PC12 cells exposed to 6-OHDA; type: cell-based; settings: 1 μM for 6 h, then 30 μM 6-OHDA for 24 h
# Procedure: Differentiated dopaminergic PC12 cells and primary mouse embryonic cortical neurons (E17, DIV14) were treated with mock (H2O) or 1 μM of dextran, alginate, HA-GAGR or midi-GAGR for 6 h and insulated by oxidative stressors (30 μM 6-OHDA [PC12] and 10 μM amyloid β peptide [cortical neurons]) for 24 h. The viability of neurons was assessed using LIVE/DEAD Viability/Cytotoxicity Assay Kit (Invitrogen).
# phosphorylated CREB [2] = test: Nuclear phospho-CREB immunostaining in PC12 cells; type: cell-based; settings: 1 μM, 24 h
# Procedure: (§1) Differentiated PC12 cells and mouse embryonic cortical neurons (E17, DIV14) were treated with mock, dextran, alginate, HA-GAGR or midi-GAGR (1 μM) for 24 h and fixed in 3.7% paraformaldehyde. The fixed cells and neurons were immunostained with antibodies against α-tubulin and phospho-CREB (p-CREB) along with DAPI (nucleus).
# phosphorylated CREB [3] = test: Nuclear phospho-CREB immunostaining in cortical neurons; type: cell-based, mouse; settings: 1 μM, 24 h
# Procedure: as §1
# [4] = test system: rat embryonic cortical neurons; test: Scholl ring analysis of cortical neurons exposed to 4-HNE; type: cell-based; settings: pretreatment 2 days, then 25 μM 4-HNE 1 day
# Procedure: Rat embryonic cortical neurons were treated with mock (FIG. 11C), 1 μM HA-GAGR (high acyl gellan gum), 1 μM dextran, 100 μM ascorbate or 1 μM midi-GAGR (FIG. 11D) for 2 days and then with 25 μM 4-hydroxynonenal (4-HNE), a lipid peroxide, for 1 day. After fixation, neurons were immunostained with anti-synaptophysin antibody (green) and rhodamine-phalloidin (actin: red). Scholl ring analysis was performed. Neurons pre-treated with mock, dextran or ascorbate lost neuritis (neuritic atrophy) in the presence of 4-HNE.
# [5] = ABTS Antioxidant Assay Kit; type: biochemical; settings: 10 μM
# Procedure: The antioxidant capacity of midi-GAGR was measured using ABTS Antioxidant Assay Kit (Zenbio Co.). […] This was slightly stronger than antioxidant capacity of LA-GAGR (10 μM LA-GAGR=15.4 μM Trolox) (Table 2)
# [6] = even at high doses (~200 mg/kg); cited from earlier work
# [7] = cited from earlier work
substance,measurement,setting,value
alginate,6-OHDA-induced cell death,[1],did not
same,increase of nuclear p-CREB levels,phosphorylated CREB [2],not significantly increased
same,increase of nuclear p-CREB levels,phosphorylated CREB [3],not significantly increased
dextran,6-OHDA-induced cell death,[1],did not
same,increase of nuclear p-CREB levels,phosphorylated CREB [2],not significantly increased
same,increase of nuclear p-CREB levels,phosphorylated CREB [3],not significantly increased
same,neurites (neuritic atrophy) in the presence of 4-HNE,[4],lost neuritis
high acyl gellan gum [HA-GAGR],increase of nuclear p-CREB levels,phosphorylated CREB [2],not significantly increased
same,increase of nuclear p-CREB levels,phosphorylated CREB [3],not significantly increased
same,neurites (neuritic atrophy) in the presence of 4-HNE,[4],"formed neuritis, but less branched"
low acyl gellan gum [LA-GAGR],antioxidant capacity,[5],15.4 μM Trolox
same,side effects in humans,[6],few side effects
same,oral bioavailability,[7],good
